Converted amounts (≈) assume the structure as drawn.
Columns and labels:
Format in all cases: functional
Bacillus spizizenii = experiment: Antimicrobial activity against Bacillus subtilis subsp. spizizenii ATCC 6633 after 24 hr by broth dilution method; settings: ATCC 6633, 24 h
Rhizoctonia solani = experiment: Antimicrobial activity against Rhizoctonia solani ATCC 76131 after 24 hr by broth dilution method; settings: ATCC 76131, 24 h
Trichophyton longifusum = experiment: Antimicrobial activity against Trichophyton longifusum ATCC 22397 after 24 hr by broth dilution method; settings: ATCC 22397, 24 h
Bacillus pumilus = experiment: Antimicrobial activity against Bacillus pumilus ATCC 14884 after 24 hr by broth dilution method; settings: ATCC 14884, 24 h
Aspergillus fumigatus = experiment: Antimicrobial activity against Aspergillus fumigatus after 24 hr by broth dilution method
Escherichia coli = experiment: Antimicrobial activity against Escherichia coli ATCC 25922 after 24 hr by broth dilution method; settings: ATCC 25922, 24 h
Aspergillus flavus = experiment: Antimicrobial activity against Aspergillus flavus ATCC 15517 after 24 hr by broth dilution method; settings: ATCC 15517, 24 h
Klebsiella pneumoniae = experiment: Antimicrobial activity against Klebsiella pneumoniae ATCC 13883 after 24 hr by broth dilution method; settings: ATCC 13883, 24 h
Proteus mirabilis = experiment: Antimicrobial activity against Proteus mirabilis ATCC 49565 after 24 hr by broth dilution method; settings: ATCC 49565, 24 h
Staphylococcus hominis = experiment: Antimicrobial activity against Staphylococcus hominis ATCC 27844 after 24 hr by broth dilution method; settings: ATCC 27844, 24 h
Staphylococcus aureus = experiment: Antimicrobial activity against Staphylococcus aureus ATCC 25923 after 24 hr by broth dilution method; settings: ATCC 25923, 24 h
Fusarium solani = experiment: Antimicrobial activity against Fusarium solani ATCC 38136 after 24 hr by broth dilution method; settings: ATCC 38136, 24 h
Pseudomonas aeruginosa = experiment: Antimicrobial activity against Pseudomonas aeruginosa ATCC 10145 after 24 hr by broth dilution method; settings: ATCC 10145, 24 h
Bacillus cereus = experiment: Antimicrobial activity against Bacillus cereus ATCC 11778 after 24 hr by broth dilution method; settings: ATCC 11778, 24 h
Trichoderma viride = experiment: Antimicrobial activity against Hypocrea rufa ATCC 52440 after 24 hr by broth dilution method; settings: ATCC 52440, 24 h
[1] = test system: Staphylococcus epidermidis; experiment: Antimicrobial activity against Staphylococcus epidermidis ATCC 12228 after 24 hr by broth dilution method; settings: ATCC 12228, 24 h
Alternaria alternata = experiment: Antimicrobial activity against Alternaria alternata ATCC 66868 after 24 hr by broth dilution method; settings: ATCC 66868, 24 h
Candida albicans = experiment: Antimicrobial activity against Candida albicans ATCC 10231 after 24 hr by broth dilution method; settings: ATCC 10231, 24 h
Proteus vulgaris = experiment: Antimicrobial activity against Proteus vulgaris ATCC 13315 after 24 hr by broth dilution method; settings: ATCC 13315, 24 h
Microsporum canis = experiment: Antimicrobial activity against Arthroderma otae ATCC 11622 after 24 hr by broth dilution method; settings: ATCC 11622, 24 h
Aspergillus awamori = experiment: Antimicrobial activity against Aspergillus awamori ATCC 22342 after 24 hr by broth dilution method; settings: ATCC 22342, 24 h
Aspergillus niger = experiment: Antimicrobial activity against Aspergillus niger ATCC 9142 after 24 hr by broth dilution method; settings: ATCC 9142, 24 h
Salmonella typhi = experiment: Antimicrobial activity against Salmonella enterica subsp. enterica serovar Typhi ATCC 19430 after 24 hr by broth dilution method; settings: ATCC 19430, 24 h
Micrococcus luteus = experiment: Antimicrobial activity against Micrococcus luteus ATCC 4698 after 24 hr by broth dilution method; settings: ATCC 4698, 24 h

Row | SMILES | MIC (Bacillus spizizenii) | MIC (Rhizoctonia solani) | MIC (Trichophyton longifusum) | MIC (Bacillus pumilus) | MIC (Aspergillus fumigatus) | MIC (Escherichia coli) | MIC (Aspergillus flavus) | MIC (Klebsiella pneumoniae) | MIC (Proteus mirabilis) | MIC (Staphylococcus hominis) | MIC (Staphylococcus aureus) | MIC (Fusarium solani) | MIC (Pseudomonas aeruginosa) | MIC (Bacillus cereus) | MIC (Trichoderma viride) | MIC [1] | MIC (Alternaria alternata) | MIC (Candida albicans) | MIC (Proteus vulgaris) | MIC (Microsporum canis) | further results
1 | O=C1Nc2ccc(Cl)cc2/C1=N/N1C(=O)C(Cl)C1c1ccc(Cl)cc1 (stereo not given) | 9.37 µg/mL (≈ 23.7 µM) | 9.37 µg/mL (≈ 23.7 µM) | 4.68 µg/mL (≈ 11.9 µM) | 9.37 µg/mL (≈ 23.7 µM) | 4.68 µg/mL (≈ 11.9 µM) | 18.8 µg/mL (≈ 47.5 µM) | 9.37 µg/mL (≈ 23.7 µM) | 9.37 µg/mL (≈ 23.7 µM) | 18.8 µg/mL (≈ 47.5 µM) | 9.37 µg/mL (≈ 23.7 µM) | 18.8 µg/mL (≈ 47.5 µM) | 4.68 µg/mL (≈ 11.9 µM) | 18.8 µg/mL (≈ 47.5 µM) | 18.8 µg/mL (≈ 47.5 µM) | 4.68 µg/mL (≈ 11.9 µM) | 18.8 µg/mL (≈ 47.5 µM) | 9.37 µg/mL (≈ 23.7 µM) | 4.68 µg/mL (≈ 11.9 µM) | 9.37 µg/mL (≈ 23.7 µM) | 9.37 µg/mL (≈ 23.7 µM) | MIC (Aspergillus awamori): 4.68 µg/mL (≈ 11.9 µM); MIC (Aspergillus niger): 4.68 µg/mL (≈ 11.9 µM); MIC (Salmonella typhi): 9.37 µg/mL (≈ 23.7 µM); MIC (Micrococcus luteus): 18.8 µg/mL (≈ 47.5 µM)
2 | O=C1Nc2ccc(Cl)cc2/C1=N/N1C(=O)CSC1c1ccccc1 (stereo not given) | 75 µg/mL (≈ 210 µM) | 37.5 µg/mL (≈ 105 µM) | 18.8 µg/mL (≈ 52.4 µM) | 75 µg/mL (≈ 210 µM) | 18.8 µg/mL (≈ 52.4 µM) | 37.5 µg/mL (≈ 105 µM) | 37.5 µg/mL (≈ 105 µM) | 37.5 µg/mL (≈ 105 µM) | 75 µg/mL (≈ 210 µM) | 75 µg/mL (≈ 210 µM) | 37.5 µg/mL (≈ 105 µM) | 18.8 µg/mL (≈ 52.4 µM) | 37.5 µg/mL (≈ 105 µM) | 37.5 µg/mL (≈ 105 µM) | 37.5 µg/mL (≈ 105 µM) | 37.5 µg/mL (≈ 105 µM) | 37.5 µg/mL (≈ 105 µM) | 9.37 µg/mL (≈ 26.2 µM) | 75 µg/mL (≈ 210 µM) | 37.5 µg/mL (≈ 105 µM) | MIC (Aspergillus awamori): 18.8 µg/mL (≈ 52.4 µM); MIC (Aspergillus niger): 18.8 µg/mL (≈ 52.4 µM); MIC (Salmonella typhi): 75 µg/mL (≈ 210 µM); MIC (Micrococcus luteus): 37.5 µg/mL (≈ 105 µM)
3 | O=C1Nc2ccc(Cl)cc2/C1=N/N1C(=O)C(Cl)C1c1ccccc1 (stereo not given) | 37.5 µg/mL (≈ 104 µM) | 18.8 µg/mL (≈ 52.1 µM) | 37.5 µg/mL (≈ 104 µM) | 37.5 µg/mL (≈ 104 µM) | 37.5 µg/mL (≈ 104 µM) | 37.5 µg/mL (≈ 104 µM) | 18.8 µg/mL (≈ 52.1 µM) | 37.5 µg/mL (≈ 104 µM) | 37.5 µg/mL (≈ 104 µM) | 75 µg/mL (≈ 208 µM) | 75 µg/mL (≈ 208 µM) | 18.8 µg/mL (≈ 52.1 µM) | 37.5 µg/mL (≈ 104 µM) | 37.5 µg/mL (≈ 104 µM) | 18.8 µg/mL (≈ 52.1 µM) | 37.5 µg/mL (≈ 104 µM) | 18.8 µg/mL (≈ 52.1 µM) | 37.5 µg/mL (≈ 104 µM) | 37.5 µg/mL (≈ 104 µM) | 37.5 µg/mL (≈ 104 µM) | MIC (Aspergillus awamori): 37.5 µg/mL (≈ 104 µM); MIC (Aspergillus niger): 18.8 µg/mL (≈ 52.1 µM); MIC (Salmonella typhi): 75 µg/mL (≈ 208 µM); MIC (Micrococcus luteus): 37.5 µg/mL (≈ 104 µM)
4 | O=C1Nc2ccc(Cl)cc2/C1=N/N1C(=O)C(Cl)C1c1ccc([N+](=O)[O-])cc1 (stereo not given) | 9.37 µg/mL (≈ 23.1 µM) | 9.37 µg/mL (≈ 23.1 µM) | 9.37 µg/mL (≈ 23.1 µM) | 9.37 µg/mL (≈ 23.1 µM) | 9.37 µg/mL (≈ 23.1 µM) | 18.8 µg/mL (≈ 46.3 µM) | 4.68 µg/mL (≈ 11.5 µM) | 9.37 µg/mL (≈ 23.1 µM) | 9.37 µg/mL (≈ 23.1 µM) | 18.8 µg/mL (≈ 46.3 µM) | 18.8 µg/mL (≈ 46.3 µM) | 9.37 µg/mL (≈ 23.1 µM) | 9.37 µg/mL (≈ 23.1 µM) | 9.37 µg/mL (≈ 23.1 µM) | 9.37 µg/mL (≈ 23.1 µM) | 18.8 µg/mL (≈ 46.3 µM) | 4.68 µg/mL (≈ 11.5 µM) | 4.68 µg/mL (≈ 11.5 µM) | 9.37 µg/mL (≈ 23.1 µM) | 4.68 µg/mL (≈ 11.5 µM) | MIC (Aspergillus awamori): 9.37 µg/mL (≈ 23.1 µM); MIC (Aspergillus niger): 4.68 µg/mL (≈ 11.5 µM); MIC (Salmonella typhi): 9.37 µg/mL (≈ 23.1 µM); MIC (Micrococcus luteus): 9.37 µg/mL (≈ 23.1 µM)
5 | O=C1Nc2ccc(Cl)cc2/C1=N/N1C(=O)CSC1c1ccc(O)cc1 (stereo not given) | 18.8 µg/mL (≈ 50.2 µM) | 9.37 µg/mL (≈ 25.1 µM) | 4.68 µg/mL (≈ 12.5 µM) | 9.37 µg/mL (≈ 25.1 µM) | 4.68 µg/mL (≈ 12.5 µM) | 18.8 µg/mL (≈ 50.2 µM) | 9.37 µg/mL (≈ 25.1 µM) | 9.37 µg/mL (≈ 25.1 µM) | 18.8 µg/mL (≈ 50.2 µM) | 9.37 µg/mL (≈ 25.1 µM) | 18.8 µg/mL (≈ 50.2 µM) | 4.68 µg/mL (≈ 12.5 µM) | 9.37 µg/mL (≈ 25.1 µM) | 18.8 µg/mL (≈ 50.2 µM) | 4.68 µg/mL (≈ 12.5 µM) | 9.37 µg/mL (≈ 25.1 µM) | 9.37 µg/mL (≈ 25.1 µM) | 4.68 µg/mL (≈ 12.5 µM) | 9.37 µg/mL (≈ 25.1 µM) | 9.37 µg/mL (≈ 25.1 µM) | MIC (Aspergillus awamori): 4.68 µg/mL (≈ 12.5 µM); MIC (Aspergillus niger): 4.68 µg/mL (≈ 12.5 µM); MIC (Salmonella typhi): 9.37 µg/mL (≈ 25.1 µM); MIC (Micrococcus luteus): 18.8 µg/mL (≈ 50.2 µM)
